# Assay results reported in PMC8247405 (British Journal of Clinical Pharmacology, 2020).
# Assays:
# [1] = system: renal transplant recipients; details: in vivo, cited from earlier work
# [2] = system: type‐2 diabetes patients; details: human, in vivo; cited from earlier work
# [3] = system: type‐2 diabetes patients; details: human, in vivo
# [4] = system: type‐2 diabetes patients; parameters: species or system human; details: in vivo
# [5] = system: type‐2 diabetes patients; details: human, in vivo; remark: listed apart in the source
# [6] = system: type‐2 diabetes patients; details: human, in vivo; remark: listed apart in the source
# [7] = system: patients; details: in vivo; cited from earlier work
smiles,measurement,setting,value
CCCCCCCCc1ccc(CCC(N)(CO)CO)cc1 [fingolimod],effect on creatinine clearance,[1]; 2.5 mg,creatinine clearance impairment
same,lymphocyte reduction,[1],70–80%
CCCc1nn(C)c2c(=O)[nH]c(-c3cc(S(=O)(=O)N4CCN(C)CC4)ccc3OCC)nc12 [sildenafil],FMD increase from baseline compared to placebo,[2],≥ 3%
same,FMD increases from baseline,[2],5–6%
same,effect on FMD,[2],failed to improve FMD
same,"vasodilatory effect (blood pressure, BAD)",[3],no blood pressure‐lowering or BAD increase
same,FMD change versus placebo Mean estimate [95% CI],[4],0.88%
same,FMD with treatment,[4],about 5%
same,Patients with TEAE: Any class,[5],5 (41.7%) n (%)
same,Patients with TEAE: Arthropod sting,[5],0 n (%)
same,Patients with TEAE: Back pain,[5],1 (8.3%) n (%)
same,Patients with TEAE: Cardiac disorders,[5],1 (8.3%) n (%)
same,Patients with TEAE: Contusion,[5],0 n (%)
same,Patients with TEAE: Cough,[5],0 n (%)
same,Patients with TEAE: Diarrhoea,[5],2 (16.7%) n (%)
same,Patients with TEAE: Dyspepsia,[5],1 (8.3%) n (%)
same,Patients with TEAE: Epistaxis,[5],0 n (%)
same,Patients with TEAE: Erythema,[5],2 (16.7%) n (%)
same,Patients with TEAE: Gastroesophageal reflux disease,[5],1 (8.3%) n (%)
same,Patients with TEAE: Gastrointestinal disorders,[5],3 (25.0%) n (%)
same,Patients with TEAE: General disorders and administration site conditions,[5],0 n (%)
same,Patients with TEAE: Headache,[5],2 (16.7%) n (%)
same,Patients with TEAE: Infections and infestations,[5],1 (8.3%) n (%)
same,"Patients with TEAE: Injury, poisoning and procedural complications",[5],0 n (%)
same,Patients with TEAE: Leading to treatment discontinuation,[5],1 (8.3%) n (%)
same,Patients with TEAE: Musculoskeletal and connective tissue disorders,[5],1 (8.3%) n (%)
same,Patients with TEAE: Musculoskeletal pain,[5],0 n (%)
same,Patients with TEAE: Nasopharyngitis,[5],1 (8.3%) n (%)
same,Patients with TEAE: Nausea,[5],0 n (%)
same,Patients with TEAE: Neck pain,[5],0 n (%)
same,Patients with TEAE: Nervous system disorders,[5],2 (16.7%) n (%)
same,Patients with TEAE: Obstructive airways disorder,[5],0 n (%)
same,Patients with TEAE: Oropharyngeal pain,[5],1 (8.3%) n (%)
same,Patients with TEAE: Orthostatic intolerance,[5],0 n (%)
same,Patients with TEAE: Otitis externa,[5],0 n (%)
same,Patients with TEAE: Palpitations,[5],0 n (%)
same,Patients with TEAE: Pruritus,[5],0 n (%)
same,"Patients with TEAE: Respiratory, thoracic and mediastinal disorders",[5],1 (8.3%) n (%)
same,Patients with TEAE: Severe AE,[5],0 n (%)
same,Patients with TEAE: Skin abrasion,[5],0 n (%)
same,Patients with TEAE: Skin and subcutaneous tissue disorders,[5],2 (16.7%) n (%)
same,Patients with TEAE: Traumatic haematoma,[5],0 n (%)
same,Patients with TEAE: Ventricular extrasystoles,[5],1 (8.3%) n (%)
same,Patients with TEAE: Vessel puncture site haematoma,[5],0 n (%)
same,Patients with TEAE: Vomiting,[5],0 n (%)
same,heart rate change,[6],no change
same,mean heart rate increase,[6],3–6 beats/min
CCOC(=O)N1c2ccc(C(F)(F)F)cc2[C@@H](N(Cc2cc(C(F)(F)F)cc(C(F)(F)F)c2)C(=O)OC)C[C@H]1CC [torcetrapib],effect on FMD,[7],pharmacological decrease in FMD
